Assay results published in patent publication US20160168537A1, “DIFFERENTIATED CELLULAR COMPOSITIONS AND METHODS FOR THEIR PREPARATION AND USE” (LIFE TECHNOLOGIES CORPORATION, priority 2013, published 2016).

How the values were obtained:
[1] = system: CYP2B6; experiment: P450 induction assay in HepaRG cells (CYP2B6 activity, hydroxybupropion formation from bupropion); assay type: cell-based; conditions: HepaRG cells cultured without matrix overlay; 10 μM RIF, 72 hours of treatment; induction is seen only when the cells are overlayed
Protocol: Cryopreserved HepaRG™ cells (Life Technologies Corporation) are terminally differentiated prior to cryopreservation. Frozen HepaRG™ cells were thawed and plated per manufacturer's instructions and placed into 37° C., 5% CO2 cell culture incubator. 24 hours after plating, media was aspirated and cells were overlayed using 0.35 mg/mL Geltrex® matrix in 4° C. in 770 media. 72 hours after plating, media was aspirated and media was exchanged with either 740 or 750 media containing 0.1% DMSO, 50 μM omeprazole (OMP), 1 mM Phenobarbital (PB), or 10 μM Rifampicin (RIF). 740 and 750 media containing vehicle or prototypical inducers was replaced daily for a total of 72 hours of treatment. Day 6 of culture (24 hours after last dosing), P450 activity was evaluated and total RNA was isolated. P450 activity was evaluated utilizing in situ incubations of prototypical substrates (100 μM phenacetin, 500 bupropion, 10 μM midazolam, or 200 μM testosterone) in Hanks' Balanced Salts Solution (HBSS) for 1 hour at 37° C. shaking on microplate shaker @600 rpm. After in situ incubations were completed, incubation matrix (supernatant/HBSS) was removed from cell monolayer and metabolite formation was evaluated by LC/MS-MS analysis. Microphotographs were taken daily to monitor morphological changes.

[2] = system: CYP2B6; conditions: primary human hepatocytes, via PXR activation; stated as typical behaviour; cited from earlier work

induction of CYP2B6 [1]: does not induce
SMILES: CO[C@H]1/C=C/O[C@@]2(C)Oc3c(C)c(O)c4c(O)c(c(/C=N/N5CCN(C)CC5)c(O)c4c3C2=O)NC(=O)/C(C)=C\C=C\[C@H](C)[C@H](O)[C@@H](C)[C@@H](O)[C@@H](C)[C@H](OC(C)=O)[C@@H]1C [RIF, Rifampicin]
induction of CYP2B6 enzyme activity [2]: induces
